Five compounds from patent US9469618B2, “Thiadiazolidinediones as GSK-3 inhibitors” (ASD THERAPEUTICS PARTNERS LLC, priority 2012, dated 2016) can be followed below.

Series [1] can be described thus: Thermodynamic solubility of TDZDs. The class given is physicochemical. The note with it: phosphate buffered saline, aqueous buffer, thermodynamic from solid; aqueous 0.01 M PBS pH 7.4, 2 mg/mL samples, 24 hours mixing, LC-UV. The procedure:
Thermodynamic solubility was determined in duplicate from samples with a compound concentration of 2 mg/mL in aqueous 0.01 M phosphate buffered saline (PBS) pH 7.4 with a mixing period of 24 hours. Analysis and quantification was performed by LC-UV. Calibration lines were prepared for each compound from samples at of 1.0, 0.1, 0.01 and 0.001 mg/mL concentration in acetonitrile.

Series [2] has as its target T1, human recombinant GSK3β (N-terminal 6His-tagged recombinant enzyme with an H350L mutation) (Homo sapiens, UniProt P49841).
T1 construct: 6His (N); purchased Millipore (Billerica, Mass., USA)
Kind of series: GSK-3 assay (Z'-LYTE FRET enzymatic activity). The note with it: 2 nM enzyme, 12.5 μM ATP, 2 μM Ser/Thr 9 peptide, 60 min at room temperature; concentration in M units; read-out: GSK-3 inhibition pEC50 average (converted). The class given is biochemical. The procedure: The enzymatic activity of GSK3β was determined with a commercial system based on the Z'-LYTE® technology, available from Life Technologies (Carlsbad, Calif., USA), using human recombinant GSK3β (N-terminal 6His-tagged recombinant enzyme with an H350L mutation) from Millipore (Billerica, Mass., USA) as the enzyme source. This technology utilizes the fluorescence resonance energy transfer (“FRET”) process between fluorescein and coumarin. The assay principle is based on the differential sensitivity of phosphorylated and non-phosphorylated peptide to proteolytic cleavage, which precludes the energy transfer process between the two fluorophores attached to both sides of the cleavage site. […] The assay is performed in 384-well black plates, in a final volume of 10 μl, with 2 nM enzyme concentration in 50 mM Hepes pH 7.5, 50 mM MgCl2, 5 mM EGTA and 0.05% Brij-35, using 12.5 μM ATP and 2 μM substrate peptide. The latter is a synthetic peptide, provided by Invitrogen under the commercial name “Ser/Thr 9 peptide”, and it is based upon the sequence of a GSK3β substrate protein (glycogen synthase I) containing Ser-641. The peptide is labeled at both ends with fluorescein and coumarin. The assay is carried out in the presence of different concentrations of the tested compound, at a final 1% (v/v) DMSO concentration. After a 60 min incubation at room temperature, 5 μl of a commercial protease solution (sold by the same vendor in the assay kit) is added and a subsequent 1 h incubation at room temperature is performed, before adding 5 μl of a suitable “stop solution”, also provided by the vendor in the kit. After that, fluorescence intensity is recorded, monitoring emission at both 445 and 520 nm, upon excitation at 400 nm. An emission ratio is finally calculated, using the quotient among the emission at 445 nm divided by that at 520 nm.
The emission ratio of each tested sample is normalized to that of the control wells, so that for every compound concentration the percentage of inhibition is calculated by using the following equation:
[formula] where “S” is the emission from the wells with the tested sample, “E” is the average emission from control wells with full enzyme activity and “B” is the average emission from wells with full enzyme inhibition. Inhibition values obtained for every compound concentration are finally used to calculate the pEC50 of the tested compound, this parameter being the negative value of the logarithm of the compound concentration, in M units, causing 50% of its maximum effect (i.e., the higher the pEC50 value the higher the potency of the compound). For that purpose the data were fitted to the following equation using the nonlinear regression function of GraphPad™ Prism 5.0 (GraphPad Software Inc.): […]

Each structure is given as a SMILES string. Values after ≈ are worked out from the molar mass of the structure shown.

T1 sequence (P49841 whole entry, stated change not applied): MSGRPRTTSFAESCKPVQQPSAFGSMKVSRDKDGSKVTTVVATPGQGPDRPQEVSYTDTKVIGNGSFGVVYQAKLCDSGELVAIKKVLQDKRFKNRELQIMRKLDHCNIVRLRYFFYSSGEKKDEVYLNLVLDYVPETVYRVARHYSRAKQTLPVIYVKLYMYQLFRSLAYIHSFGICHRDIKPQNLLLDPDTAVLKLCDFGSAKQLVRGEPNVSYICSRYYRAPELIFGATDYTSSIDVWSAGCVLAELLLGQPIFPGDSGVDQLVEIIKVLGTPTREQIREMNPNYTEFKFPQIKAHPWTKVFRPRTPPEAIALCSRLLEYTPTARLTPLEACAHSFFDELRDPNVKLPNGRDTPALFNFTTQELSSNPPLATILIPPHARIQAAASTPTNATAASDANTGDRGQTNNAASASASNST

The compound `O=c1sn(-c2cccc3ccccc23)c(=O)n1Cc1ccccc1` [Compound 5, reference compound] gave a thermodynamic solubility at 24 h in series [1] of at most 1 µg/mL.

Compound `CCn1c(=O)sn(Cc2ccccc2)c1=O` [Compound 1, 2-benzyl-4-ethyl-[1,2,4]thiadiazolidine-3,5-dione] registered a thermodynamic solubility at 24 h in series [1] of 617 µg/mL (≈ 2610 µM). For the same compound, the EC50 in series [2] is 631 nM.

Consider `O=c1sn(Cc2ccccc2)c(=O)n1CC1CCCO1` (stereo not drawn) [Compound 2, 2-benzyl-4-(tetrahydro-furan-2-ylmethyl)-[1,2,4]thiadiazolidine-3,5-dione], for which, in series [1], the thermodynamic solubility at 24 h was determined as 1030 µg/mL (≈ 3520 µM). Also, the EC50 in series [2] is 2000 nM.

On to `CCOC(=O)Cn1c(=O)sn(C(Cc2ccccc2)C(=O)OCC)c1=O` (stereo not drawn) [Compound 3], for which, in series [1], the thermodynamic solubility at 24 h stood at 22 µg/mL (≈ 57.8 µM). Moreover, the EC50 in series [2] was 25.1 nM.

Consider `O=c1sn(Cc2ccccc2)c(=O)n1CCO` [Compound 4, 2-benzyl-4-(2-hydroxy-ethyl)-[1,2,4]thiadiazolidine-3,5-dione], for which, in series [1], the thermodynamic solubility at 24 h was determined as 1840 µg/mL (≈ 7300 µM). In series [2], the EC50 is 1580 nM.
